Paper PMC11483813, “Bombesin-Targeted Delivery of β-Carboline-Based Ir(III) and Ru(II) Photosensitizers for a Selective Photodynamic Therapy of Prostate Cancer” (Inorganic Chemistry, 2024)
Residues, ends and D or L forms follow the SMILES beside them. *: point of attachment. X1 = Cn1c2ccccc2c2ccnc(-c3ccc(/C=C/C(=O)*)cn3)c21

What was measured:
PC-3 cells [1] = experiment: Cellular internalization by ICP-MS; type: cell-based, human; conditions: 5 μM, 4 h
Procedure: Figure 10 Cellular internalization. PC-3 cells were incubated for 4 h with the indicated compounds at 5 μM, and the Ir (A) or Ru (B) content per 1 × 10^6 cells was quantified by ICP-MS. Bars represent the mean value of three replicates ± SD. * p < 0.05; *** p < 0.001 versus Ir-H or Ru-H.
The intracellular accumulation of the PSs is a crucial requirement to achieve a photocytotoxic effect. This is because the ROS generated by the PSs have a very limited radius of action and only operate in the cellular compartment or organelle in which they are generated.[57] […] This further emphasizes the importance of cellular uptake for their cytotoxic activity. Additionally, when using tumor-targeting ligands, such as BN3, the intracellular uptake of the metallopeptides depends on the level of expression of the target receptor on the cell surface and the internalization mechanism, which may differ from that of the free complex. Therefore, the internalization of complexes Ir-H, Ir-Me, Ru-H, and Ru-Me and of metallopeptides Ir-BN and Ru-BN in PC-3 cells was determined by quantifying the intracellular metal content by inductively coupled plasma mass spectrometry (ICP-MS) (Figure 10). After 4 h treatment with the compounds at 5 μM, the amount of Ir in cells exposed to Ir-H was 3.1 ± 0.7 ng per million cells, whereas in the case of its conjugated form Ir-BN, it increased 5.7-fold to 17.9 ± 5.6 ng per million cells. […]
PC-3 cells were seeded in 6-well plates at a density of 2 million cells/well. […] The number of cells in each sample was determined using a Novocyte flow cytometer (Agilent Technologies). The samples were centrifuged to obtain the cell pellet, and the complex content was subsequently assessed using inductively coupled plasma mass spectrometry (ICP-MS). […] The Ir or Ru content was analyzed in Agilent 7500c ICP-MS located at the Technical Research Services of the University of Girona. […] The isotopes detected were ^193Ir, ^101Ru, and ^103Rh, respectively. […] Three independent samples were analyzed for each complex.

PC-3 cells [2] = experiment: Clonogenic assay; type: cell-based, human; conditions: 5 μM, blue light irradiation, 10 days, versus control cells
Procedure: The effect of the metallopeptides Ir-BN and Ru-BN as well as of the complexes Ir-H and Ru-H on the viability of PC-3 cells was next investigated through clonogenic assays, which determine the fraction of cells that survive treatment and retain the ability to generate new colonies.[56] This is a crucial feature of metastatic cancer cells, which need to proliferate in distant tissues to create secondary tumors. For this purpose, PC-3 cells were treated with the compounds at an equimolar concentration of 5 μM with or without photoactivation with blue light. Ten days later, the number of cells that survived and were able to grow and form colonies was assessed in comparison to control cells. Cells treated with cisplatin were used as a positive control.
Figure 8 Clonogenic assay. PC-3 cells were treated with the indicated compounds at 5 μM in the dark and with blue light irradiation. Control cells were treated with the medium alone. Cisplatin was used as a positive control. Cells were incubated for 10 days to allow colony formation. (A) Images of the colonies. (B) Bar charts representing the percentage of colonies versus control cells after each treatment (mean ± SD of 3 experiments). ** p < 0.01; *** p < 0.001 versus control cells.
PC-3 cells were seeded at a density of 100000 cells per well in 12-well plates and allowed to adhere for 24 h. The cells were treated with the compounds […] for 4 h and subsequently irradiated with blue light or kept in the dark for one hour. The treatments were then removed, and the cells were washed with PBS, harvested by trypsinization, and counted using a Novocyte flow cytometer (Agilent Technologies). Subsequently, 3000 cells were seeded in 5 cm culture dishes and incubated for 10 days to allow colonies to form. A colony was defined to consist of at least 50 cells. Cells treated with cisplatin (5 μM) were used as a positive control, and cells treated with the culture medium alone were used as a negative control. […] Each compound was evaluated in triplicate.

## Cn1c2ccccc2c2ccnc(-c3ccc(/C=C/C(=O)O)cn3)c21.[Cl-].[Ir+3].[c-]1ccccc1-c1ccccn1.[c-]1ccccc1-c1ccccn1 [Ir-H]
PC-3 cells [1]
  amount of Ir in cells: 3.1 ± 0.7 ng per million cells
PC-3 cells [2]
  decrease in number of colonies: 27.3%

## Cn1c2ccccc2c2ccnc(-c3ccc(/C=C/C(=O)O)cn3)c21.[Cl-].[Cl-].[Ru+2].c1ccc(-c2ccccn2)nc1.c1ccc(-c2ccccn2)nc1 [Ru-H]
PC-3 cells [1]
  intracellular Ru content: 0.329 ng per million cells
PC-3 cells [2]
  decrease in number of colonies: No effect

## CC(C)C[C@H](NC(=O)[C@H](CC(C)C)NC(=O)[C@H](Cc1c[nH]cn1)NC(=O)CNC(=O)[C@@H](NC(=O)[C@H](C)NC(=O)[C@H](Cc1c[nH]c2ccccc12)NC(=O)[C@H](CCC(N)=O)NC(=O)[C@H](CC(N)=O)NC(=O)CNC(=O)[C@H](CC(C)C)NC(=O)[C@H](CCCNC(=N)N)NC(=O)[C@H](CCC(N)=O)NC(=O)/C=C/c1ccc(-c2nccc3c4ccccc4n(C)c23)nc1)C(C)C)C(N)=O [Ir-BN] (X1-QRLGNQWAVGHLL-NH2)
PC-3 cells [2]
  decrease in number of colonies: 34.7%

## COC(=O)/C=C/c1ccc(-c2nccc3c4ccccc4n(C)c23)nc1.[Cl-].[Ir+3].[c-]1ccccc1-c1ccccn1.[c-]1ccccc1-c1ccccn1 [Ir-Me]
PC-3 cells [1]
  amount of Ir in cells: 266.4 ± 13.9 ng per million cells
